Here are results for 25 molecules from patent US9199959B2, “HIV replication inhibitor” (Shionogi & Co., Ltd., priority 2011, dated 2015).

One series relates to HIV (HTLV-III B strain). Description: HIV replication inhibition assay (MTT, MT-4 cells). In kind it is cell-based. The settings on record: Human immunodeficiency virus 1, MT4, 96 h, four days culture, concentration at which cell cytotoxicity by virus is inhibited 50%. How it is done:
HIV (HTLV-III B strain) persistent infected human T cell strain Molt-4 clone 8 was cultured in 10% Fetal Bovine Serum-containing RPMI-1640 medium and the supernatant was filtrated, then the virus titer was measured and the solution was stored at −80° C. Each anti-human immunodeficiency virus active substance was diluted with the above cultured medium to the designated concentration, which was dispensed into 96 well micro plate by 50 μL. Next, a MT-4 cell suspended liquid was dispensed by 100 μL (2.5×10^4 cells), then the above HIV-containing supernatant diluted with the above cultured medium was added thereto by 50 μL (60 pfu (plaque forming unit)).
The obtained mixture was cultured at 37° C. in CO2 incubator for four days, then 3-(4,5-dimehylthiazole-2-yl)-2,5-diphenyltetrazolynium bromide (MTT) 5 mg/mL in PBS was added to each well by 30 μL, followed by 1 hr-cultivation. In this step, as formazan was precipitated by reduction of MTT in living cells, the cell supernatant was removed from all well by 150 μL, then a 150 μL of solution (10% Triton X-100 and […]) was added thereto, followed by shaking with a plate mixer, to elute formazan. The formazan was measured with a microreader at OD: 560 nm and 690 nm (wavelength) and the result was compared with the reference. EC50 means the compound concentration at which cell cytotoxicity by virus is inhibited 50%.

For the next series, the target named is T1, CYP1A2 (Homo sapiens, UniProt P05177).
T1 construct: enzyme, pooled human hepatic microsome 0.2 mg protein/mL; from tissue; host or cells: pooled human liver microsomes
T1 sequence (P05177 1-516): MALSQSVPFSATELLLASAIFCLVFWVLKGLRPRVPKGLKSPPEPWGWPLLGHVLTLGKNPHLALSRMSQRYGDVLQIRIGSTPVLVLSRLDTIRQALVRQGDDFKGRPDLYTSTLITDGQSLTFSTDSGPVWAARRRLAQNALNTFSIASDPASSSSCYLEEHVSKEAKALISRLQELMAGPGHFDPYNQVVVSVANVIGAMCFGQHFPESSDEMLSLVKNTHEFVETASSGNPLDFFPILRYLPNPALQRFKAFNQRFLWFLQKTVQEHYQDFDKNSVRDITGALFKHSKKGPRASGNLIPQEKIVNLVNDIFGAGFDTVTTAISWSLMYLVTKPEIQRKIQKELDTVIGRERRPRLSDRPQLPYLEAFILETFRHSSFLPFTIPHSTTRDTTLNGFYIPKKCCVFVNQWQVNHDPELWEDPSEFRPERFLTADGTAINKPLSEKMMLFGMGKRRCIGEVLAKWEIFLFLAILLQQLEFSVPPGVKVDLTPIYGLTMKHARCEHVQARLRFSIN
Briefly: CYP inhibition assay, 7-ethoxyresorufin O-deethylation. Type of series: in vitro ADME. The settings on record: pooled human liver microsomes, probe 7-ethoxyresorufin (O-deethylation), 0.5 μmol/L, pooled human hepatic microsome. How it is done: (§1) Using commercially available pooled human hepatic microsome, and employing, as markers, 7-ethoxyresorufin O-deethylation (CYP1A2), tolbutamide methyl-hydroxylation (CYP2C9), mephenytoin 4′-hydroxylation (CYP2C19), dextromethorphan O-demethylation (CYP2D6), and terfenedine hydroxylation (CYP3A4) as typical substrate metabolism reactions of human main five CYP enzyme forms (CYP1A2, 2C9, 2C19, 2D6, 3A4), an inhibitory degree of each metabolite production amount by a test compound was assessed.
(§2) The reaction conditions were as follows: substrate, 0.5 μmol/L ethoxyresorufin (CYP1A2), 100 μmol/L tolbutamide (CYP2C9), 50 μmol/L S-mephenytoin (CYP2C19), 5 μmol/L dextromethorphan (CYP2D6), 1 μmol/L terfenedine (CYP3A4); reaction time, 15 minutes; reaction temperature, 37° C.; enzyme, pooled human hepatic microsome 0.2 mg protein/mL; test drug concentration, 1, 5, 10, 20 μmol/L (four points).
(§3) Each five kinds of substrates, human hepatic microsome, and a test drug in 50 mmol/L Hepes buffer as a reaction solution was added to a 96-well plate as the composition as described above, NADPH, as a cofactor was added to initiate metabolism reactions as markers and, after the incubation at 37° C. for 15 minutes, a methanol/acetonitrile=1/1 (v/v) solution was added to stop the reaction. After the centrifugation at 3000 rpm for 15 minutes, resorufin (CYP1A2 metabolite) in the supernatant was quantified by a fluorescent multilabel counter and tolbutamide hydroxide (CYP2C9 metabolite), mephenytoin 4′ hydroxide (CYP2C19 metabolite), dextrorphan (CYP2D6 metabolite), and terfenadine alcohol (CYP3A4 metabolite) were quantified by LC/MS/MS.
(§4) A reaction system containing only DMSO which is a solvent for dissolving a drug was adopted as a control (100%), and the remaining activity (%) was calculated, then IC50 was calculated by reverse presumption with a logistic model using a concentration and an inhibition rate.
On the technique in general: Liver microsomes are vesicles of endoplasmic reticulum, rich in cytochrome P450 enzymes.

Series [1] is described as follows: Solubility test, 1% DMSO addition, artificial intestinal juice pH 6.8. As to conditions: artificial intestinal juice with 1% DMSO, fassgf or other biorelevant, kinetic from dmso stock; pH 6.8, 1% DMSO addition, 16 hours at 25° C. Type of series: physicochemical. How it is done:
The solubility of each compound was determined under 1% DMSO addition conditions. A 10 mmol/L solution of the compound was prepared with DMSO, and 6 μL of the solution was added to 594 μL of an artificial intestinal juice (water and a 118 mL solution of 0.2 mol/L NaOH reagent are added to 250 mL of 0.2 mol/L potassium dihydrogen phosphate reagent to reach 1000 mL) with a pH of 6.8. The mixture is left standing for 16 hours at 25° C., and the mixture is vacuum-filtered. The filtrate is two-fold diluted with methanol/water=1/1 (v/v), and the compound concentration in the filtrate is measured with HPLC or LC/MS/MS by the absolute calibration method.

The target of another series is T2, CYP3A4 (Homo sapiens, UniProt P08684).
T2 construct: enzyme, pooled human hepatic microsome 0.2 mg protein/mL; from tissue; host or cells: pooled human liver microsomes
T2 sequence (P08684 whole entry): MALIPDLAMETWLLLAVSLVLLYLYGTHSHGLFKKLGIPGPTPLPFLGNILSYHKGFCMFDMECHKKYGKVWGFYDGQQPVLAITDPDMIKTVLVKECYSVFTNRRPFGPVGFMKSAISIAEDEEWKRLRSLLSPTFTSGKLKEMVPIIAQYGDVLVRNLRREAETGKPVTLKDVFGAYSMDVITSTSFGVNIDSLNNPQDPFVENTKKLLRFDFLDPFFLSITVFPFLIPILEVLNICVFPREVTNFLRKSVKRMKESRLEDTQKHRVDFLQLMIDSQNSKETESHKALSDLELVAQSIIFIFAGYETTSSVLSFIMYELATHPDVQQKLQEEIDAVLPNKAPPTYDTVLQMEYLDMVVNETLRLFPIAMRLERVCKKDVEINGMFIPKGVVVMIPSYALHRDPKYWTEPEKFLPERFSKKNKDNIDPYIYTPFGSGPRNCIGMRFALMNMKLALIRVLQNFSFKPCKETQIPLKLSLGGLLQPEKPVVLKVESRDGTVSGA
Description: CYP inhibition assay, terfenedine hydroxylation. Type of series: in vitro ADME. The settings on record: pooled human liver microsomes, probe terfenedine (hydroxylation), 1 μmol/L, pooled human hepatic microsome. The procedure: as §1, §2, §3, §4

A further series addresses T3, CYP2C19 (Homo sapiens, UniProt P33261).
T3 construct: enzyme, pooled human hepatic microsome 0.2 mg protein/mL; from tissue; host or cells: pooled human liver microsomes
Description: CYP inhibition assay, mephenytoin 4'-hydroxylation. Type of series: in vitro ADME. As to conditions: pooled human liver microsomes, probe S-mephenytoin (4'-hydroxylation), 50 μmol/L, pooled human hepatic microsome. The procedure:
as §1, §2, §3, §4

In a further series the target is T4, CYP2D6 (Homo sapiens, UniProt P10635).
T4 construct: enzyme, pooled human hepatic microsome 0.2 mg protein/mL; from tissue; host or cells: pooled human liver microsomes
T4 sequence (P10635 whole entry): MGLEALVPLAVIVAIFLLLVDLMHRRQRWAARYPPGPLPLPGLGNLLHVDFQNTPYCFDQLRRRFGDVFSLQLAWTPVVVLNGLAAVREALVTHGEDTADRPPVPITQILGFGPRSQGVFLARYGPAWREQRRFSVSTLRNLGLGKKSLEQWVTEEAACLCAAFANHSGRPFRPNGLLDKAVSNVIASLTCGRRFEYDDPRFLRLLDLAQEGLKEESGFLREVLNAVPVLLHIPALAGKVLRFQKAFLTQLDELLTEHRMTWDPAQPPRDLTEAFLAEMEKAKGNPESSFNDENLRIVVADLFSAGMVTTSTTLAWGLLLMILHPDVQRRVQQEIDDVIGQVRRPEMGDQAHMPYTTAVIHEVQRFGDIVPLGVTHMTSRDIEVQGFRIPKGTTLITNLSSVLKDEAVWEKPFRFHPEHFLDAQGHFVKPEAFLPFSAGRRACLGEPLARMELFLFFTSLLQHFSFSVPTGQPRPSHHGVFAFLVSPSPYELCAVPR
Briefly: CYP inhibition assay, dextromethorphan O-demethylation. Type of series: in vitro ADME. As to conditions: pooled human liver microsomes, probe dextromethorphan (O-demethylation), 5 μmol/L, pooled human hepatic microsome. How it is done: as §1, §2, §3, §4

Some results are limits rather than exact numbers.

T3 sequence (P33261 whole entry): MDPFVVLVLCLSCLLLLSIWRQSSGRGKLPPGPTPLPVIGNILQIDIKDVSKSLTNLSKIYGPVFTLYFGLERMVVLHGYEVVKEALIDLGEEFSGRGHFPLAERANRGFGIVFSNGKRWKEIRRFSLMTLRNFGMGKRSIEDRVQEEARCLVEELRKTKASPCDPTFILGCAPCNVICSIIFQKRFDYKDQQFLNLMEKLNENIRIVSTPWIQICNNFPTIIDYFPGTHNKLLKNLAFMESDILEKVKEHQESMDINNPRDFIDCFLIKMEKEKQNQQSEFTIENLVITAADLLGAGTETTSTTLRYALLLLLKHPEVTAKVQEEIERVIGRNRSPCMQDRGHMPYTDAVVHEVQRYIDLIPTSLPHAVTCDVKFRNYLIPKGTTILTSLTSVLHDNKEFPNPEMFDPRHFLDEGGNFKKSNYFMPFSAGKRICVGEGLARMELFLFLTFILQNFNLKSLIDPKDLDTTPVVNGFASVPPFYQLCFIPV

A word on the EC50: it is the concentration giving half of the maximal effect. A lower EC50 goes with a more potent agent. `Cc1cc(-c2c(C)c(-c3ccc4c(c3C)CCCO4)c([C@H](OC(C)(C)C)C(=O)O)c(C)c2NS(C)(=O)=O)ccc1F` [Compound I-305] displayed a half-maximal effective concentration (EC50) in the series with HIV (HTLV-III B strain) of 0.002 µM.
What is called IC50 is the concentration needed to halve the response being measured. High values mean lower potency, low ones higher potency. Usually solubility stands for how much of the substance goes into solution per volume. Higher therefore signals a readily soluble substance. As to `Cc1ccc(-c2c(N)cc(C(OC(C)(C)C)C(=O)O)c(-c3ccc(C)c(C)c3)c2C)cc1C` (stereo not shown) [Compound I-2], the IC50 at 15 min at CYP1A2, against CYP3A4, on CYP2C19 and against CYP2D6 was at least 20 µM each time. In series [1], this molecule returned a solubility at 16 h of at least 50 µM.
Consider `Cc1cc(NS(=O)(=O)c2cccc(Cl)c2Cl)c(C)c(C(OC(C)(C)C)C(=O)O)c1-c1ccc2c(c1)CCCO2` (stereo not shown) [Compound I-121], for which, in the series on HIV (HTLV-III B strain), the EC50 is 0.0052 µM. In other words, the single-digit nanomolar range.
On the same count and under the same terms, for `Cc1cc(NS(=O)(=O)c2cccc3cccnc23)c(C)c(C(OC(C)(C)C)C(=O)O)c1-c1ccc2c(c1)CCCO2` (stereo not shown) [Compound I-66] the value was 0.0045 µM; for `Cc1ccc(-c2c(C)c(-c3ccc4c(c3C)CCCO4)c(C(OC(C)(C)C)C(=O)O)c(C)c2NS(C)(=O)=O)cc1C` (stereo not shown) [Compound I-215], 0.0022 µM; for `Cc1cc(NS(=O)(=O)CC2CCCCC2)c(C)c(C(OC(C)(C)C)C(=O)O)c1-c1ccc2c(c1)CCCO2` (stereo not shown) [Compound I-82], 0.0041 µM.
The same measure, in the same setting: as for `Cc1cc2c(c(C(OC(C)(C)C)C(=O)O)c1-c1ccc3c(c1)CCCO3)CCCN2S(=O)(=O)c1cccc2cccnc12` (stereo not shown) [II-17], the figure is 0.0025 µM; as for `Cc1cc(-c2c(C)c(-c3cc(F)c4c(c3C)CCCO4)c([C@H](OC(C)(C)C)C(=O)O)c(C)c2NS(C)(=O)=O)ccc1F` [Compound I-310], 0.004 µM.
For the molecule `Cc1ccc(-c2c(NC(=O)C(C)C)cc(C(OC(C)(C)C)C(=O)O)c(-c3ccc(C)c(C)c3)c2C)cc1C` (stereo not shown) [Compound I-10], the IC50 at 15 min at CYP1A2, on CYP3A4, against CYP2C19 and at CYP2D6 was at least 20 µM in each case. This molecule also came in with a solubility at 16 h in series [1] of at least 50 µM.
In the series on HIV (HTLV-III B strain), `Cc1ccc(-c2c(C)c(C3=CCCCCC3)c(C(OC(C)(C)C)C(=O)O)c(C)c2NS(C)(=O)=O)cc1C` (stereo not shown) [Compound I-168] came in with an EC50 of 0.0039 µM.
In the case of `Cc1ccc(-c2c(C)c(-c3ccc(C)c(C)c3)c(C(OC(C)(C)C)C(=O)O)c(C)c2N)cc1C` (stereo not shown) [Compound I-7], the IC50 at 15 min against CYP1A2, against CYP3A4, against CYP2C19 and against CYP2D6 was at least 20 µM throughout. A half-maximal effect in the series with HIV (HTLV-III B strain) (EC50) was put at 0.018 µM.
The molecule `Cc1cc(NS(=O)(=O)CC2CCCCC2)c(C)c(C(OC(C)(C)C)C(=O)O)c1-c1ccc2c(c1C)CCCO2` (stereo not shown) [Compound I-150] displayed an EC50 in the series with HIV (HTLV-III B strain) of 0.0023 µM.
The same measure, in the same setting: as for `Cc1c(-c2c(C)c(C)c(NS(=O)(=O)c3cccc4ccccc34)c(C)c2[C@H](OC(C)(C)C)C(=O)O)ccc2c1CCCO2` [Compound I-145], the figure is 0.0012 µM; as for `Cc1cc(NS(=O)(=O)c2cccc3ccccc23)c(C)c(C(OC(C)(C)C)C(=O)O)c1-c1ccc2c(c1)CCCO2` (stereo not shown) [Compound I-60], 0.004 µM; as for `Cc1ccc(-c2c(C)c(-c3ccc(C)c(C)c3)c3c(c2[C@H](OC(C)(C)C)C(=O)O)CCC(=O)N3C)cc1C` [II-42], 0.0044 µM.
Same read-out and setting: for `Cc1cc2c(c(C(OC(C)(C)C)C(=O)O)c1-c1ccc3c(c1)CCCO3)CCCN2S(=O)(=O)c1cccc2ccccc12` (stereo not shown) [II-14] the value was 0.0048 µM.
On to `COC(=O)Nc1cc(C(OC(C)(C)C)C(=O)O)c(-c2ccc(C)c(C)c2)c(C)c1-c1ccc(C)c(C)c1` (stereo not shown) [Compound I-5], for which the IC50 at 15 min against CYP1A2, on CYP3A4, against CYP2C19 and at CYP2D6 was at least 20 µM each time.
`CC(=O)Nc1cc(C(OC(C)(C)C)C(=O)O)c(-c2ccc(C)c(C)c2)c(C)c1-c1ccc(C)c(C)c1` (stereo not shown) [Compound I-3]: the IC50 at 15 min against CYP1A2, against CYP3A4, against CYP2C19 and on CYP2D6 was at least 20 µM throughout. The molecule also displayed a solubility at 16 h in series [1] of at least 50 µM.
As to `CC(=O)Nc1c(Br)c(C(OC(C)(C)C)C(=O)O)c(-c2ccc(C)c(C)c2)c(C)c1-c1ccc(C)c(C)c1` (stereo not shown) [Compound I-4], the IC50 at 15 min at CYP1A2, against CYP3A4, on CYP2C19 and on CYP2D6 was at least 20 µM in each case. The solubility at 16 h in series [1] was at least 50 µM. Further, the response with HIV (HTLV-III B strain) was half-maximal at 0.013 µM (EC50).
Consider `Cc1ccc(-c2c(C(OC(C)(C)C)C(=O)O)cc(N(C)C(=O)C(C)C)c(-c3ccc(C)c(C)c3)c2C)cc1C` (stereo not shown) [Compound I-9], for which the IC50 at 15 min at CYP1A2, on CYP3A4, against CYP2C19 and on CYP2D6 was at least 20 µM in each case.
In the series on HIV (HTLV-III B strain), `COc1ccc(-c2c(C)cc(NS(=O)(=O)CC3CCCCC3)c(C)c2C(OC(C)(C)C)C(=O)O)cc1` (stereo not shown) [Compound I-285] had an EC50 of 0.0045 µM.
The same measure, in the same setting: as for `CNc1c(C)c(C(OC(C)(C)C)C(=O)O)c(-c2ccc(C)c(C)c2)c(C)c1-c1ccc(C)c(C)c1` (stereo not shown) [Compound I-14], the figure is 0.019 µM.
The same measure, in the same setting: as for `Cc1c(OCc2ccccc2)c(N(C)S(C)(=O)=O)c(C)c(C(OC(C)(C)C)C(=O)O)c1-c1ccc2c(c1)CCCO2` (stereo not shown) [Compound I-263], the figure is 0.0025 µM; as for `Cc1c(-c2c(C)c(C)c(NS(=O)(=O)c3cccc4ccccc34)c(C)c2C(OC(C)(C)C)C(=O)O)ccc2c1CCCO2` (stereo not shown) [Compound I-140], 0.0019 µM.
As for `CC(=O)N(C)c1c(C)c(C(OC(C)(C)C)C(=O)O)c(-c2ccc(C)c(C)c2)c(C)c1-c1ccc(C)c(C)c1` (stereo not shown) [Compound I-8], the IC50 at 15 min at CYP1A2, on CYP3A4, against CYP2C19 and against CYP2D6 was at least 20 µM each time.
